The test system of one experiment is H358 cells. Put plainly: H358 cell proliferation inhibition (CellTiter-Glo luminescent cell viability assay). The class given is cell-based. The conditions noted are these: 7 days. In a few lines: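 H358 cells seeded at 3000 cells/well in RPMI1640/10% FBS, treated with compound for 7 days at 37 °C/5% CO2. Viability read by CellTiter-Glo 3D luminescence, normalised to cell-free (100%) and compound-free (0%) controls; IC50 fitted from 8 concentrations by four-parameter curve.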

Experiment [1] has as its system p-ERK pathway in H358 cells. Put plainly: p-ERK pathway inhibition in H358 cells (Advanced phospho-ERK (Thr202/Tyr204) cellular kit, HTRF). The class given is cell-based. Put shortly: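 Serum-starved H358 cells (50000/well, overnight) treated with compound for 1 h at 37 °C, then lysed; phospho-ERK (Thr202/Tyr204) read by HTRF (665/620 nm ratio). Cell-free wells set 100% inhibition, untreated cells 0%; IC50 fitted from 8 concentrations by four-parameter curve.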

Where [2] appears, read: Homo sapiens, NCI-H358, 1 h compound incubation.

Turning to `Cc1nc(N[C@H](C)c2cccc(C(F)F)c2F)c2cn(C3(CF)CC3)c(=O)c(N3CCc4cn(C)nc4C3)c2n1` [Example 98, (R)-4-((1-(3-(difluoromethyl)-2-fluorophenyl)ethyl)amino)-6-(1-(fluoromethyl)cyclopropyl)-2-methyl-8-(2-methyl-2,4,5,7-tetrahydro-6H-pyrazolo[3,4-c]pyridin-6-yl)pyrido[4,3-d]pyrimidine-7(6H)-one], the IC50 with H358 cells (Homo sapiens, NCI-H358, 168 h) stood at 44 nM; in experiment [1] (setting [2]), 55.6 nM.

For the molecule `Cc1nc(N[C@H](C)c2cccc(C(F)F)c2F)c2cn(C3(CF)CC3)c(=O)c(N3CCC4(CC3)COC4)c2n1` [Example 151, (R)-4-((1-(3-(difluoromethyl)-2-fluorophenyl)ethyl)amino)-6-(1-(fluoromethyl)cyclopropyl)-2-methyl-8-(2-oxa-7-azaspiro[3.5]nonan-7-yl)pyrido[4,3-d]pyrimidine-7(6H)-one], the IC50 turned out to be 73.1 nM with H358 cells (Homo sapiens, NCI-H358, 168 h) and 41.7 nM in experiment [1] (setting [2]).

For the molecule `Cc1nc(N[C@H](C)c2cccc(S(F)(F)(F)(F)F)c2)c2cn(N3CCOCC3)c(=O)c(-c3ccc(C#N)nc3)c2n1` [Example 22, (R)-5-(2-methyl-6-morpholinyl-7-oxo-4-((1-(3-(pentafluoro-λ^6-sulfanyl)phenyl)ethyl)amino)-6,7-dihydropyrido[4,3-d]pyrimidin-8-yl)pyridinecarbonitrile], the IC50 in the experiment on H358 cells (Homo sapiens, NCI-H358, 168 h) stood at 129 nM; in experiment [1] (setting [2]) it was 180 nM.

`COc1c(=O)n(C2(CC#N)CC2)cc2c(N[C@H](C)c3cccc(C(F)F)c3F)nc(C)nc12` [Example 32, (R)-2-(1-(4-((1-(3-(difluoromethyl)-2-fluorophenyl)ethyl)amino)-8-methoxy-2-methyl-7-oxopyrido[4,3-d]pyrimidine-6(7H)-yl)cyclopropyl)acetonitrile]: the IC50 in the experiment with H358 cells (Homo sapiens, NCI-H358, 168 h) worked out at 134 nM; in experiment [1] (setting [2]) it was 48.9 nM.

In the case of `[2H]C([2H])([2H])Oc1c(=O)n(C2(CF)CC2)cc2c(N[C@H](C)c3cccc(S(F)(F)(F)(F)F)c3)nc(C)nc12` [Example 31, (R)-6-(1-(fluoromethyl)cyclopropyl)-8-(methoxy-d3)-2-methyl-4-((1-(3-(pentafluoro-λ^6-sulfanyl)phenyl)ethyl)amino)pyrido[4,3-d]pyrimidine-7(6H)-one], the IC50 is 133 nM in the experiment on H358 cells (Homo sapiens, NCI-H358, 168 h) and 73 nM in experiment [1] (setting [2]).

Consider `Cc1nc(N[C@H](C)c2cccc(C(F)F)c2F)c2cn(C3(CF)CC3)c(=O)c(N3CC4CC(C3)O4)c2n1` [Example 174], for which the IC50 in the experiment on H358 cells (Homo sapiens, NCI-H358, 168 h) turned out to be 36.2 nM; in experiment [1] (setting [2]), 20.4 nM.

Regarding `Cc1nc(N[C@H](C)c2cccc(C(F)F)c2F)c2cn(C3(CF)CC3)c(=O)c(N3[C@@H](C)COC[C@@H]3C)c2n1` [Example 127, 4-(((R)-1-(3-(difluoromethyl)-2-fluorophenyl)ethyl)amino)-8-((3S,5S)-3,5-dimethylmorpholinyl)-6-(1-(fluoromethyl)cyclopropyl)-2-methylpyrido[4,3-d]pyrimidine-7(6H)-one], the IC50 with H358 cells (Homo sapiens, NCI-H358, 168 h) is 90 nM; in experiment [1] (setting [2]), 72.5 nM.

Turning to `Cc1nc(N[C@H](C)c2cccc(C(F)F)c2F)c2cn(C3(CF)CC3)c(=O)c(N3CCN(C)CC3)c2n1` [Example 38, (R)-4-((1-(3-(difluoromethyl)-2-fluorophenyl)ethyl)amino)-6-(1-(fluoromethyl)cyclopropyl)-2-methyl-8-(4-methylpiperazin-1-yl)pyrido[4,3-d]pyrimidine-7(6H)-one], the IC50 in the experiment with H358 cells (Homo sapiens, NCI-H358, 168 h) stood at 11.7 nM; in experiment [1] (setting [2]), 100 nM.

Turning to `COC1(C)CCN(c2c(=O)n(C3(CF)CC3)cc3c(N[C@H](C)c4cccc(C(F)F)c4F)nc(C)nc23)CC1` [Example 155], the IC50 in the experiment on H358 cells (Homo sapiens, NCI-H358, 168 h) stood at 124 nM; in experiment [1] (setting [2]), 59.8 nM.

Take `Cc1nc(N[C@H](C)c2cccc(C(F)F)c2F)c2cn(C3(CF)CC3)c(=O)c(N3CCOC[C@@H]3CF)c2n1` [Example 136, 4-(((R)-1-(3-(difluoromethyl)-2-fluorophenyl)ethyl)amino)-6-(1-(fluoromethyl)cyclopropyl)-8-((R)-3-(fluoromethyl)morpholinyl)-2-methylpyrido[4,3-d]pyrimidine-7(6H)-one]: the IC50 in the experiment on H358 cells (Homo sapiens, NCI-H358, 168 h) amounted to 42.3 nM; in experiment [1] (setting [2]) it was 80.2 nM.

As for `Cc1nc(N[C@H](C)c2cccc(C(F)F)c2F)c2cn(N3CCOCC3)c(=O)c(-c3cnc4c(cnn4C)c3)c2n1` [Example 100], the IC50 in the experiment with H358 cells (Homo sapiens, NCI-H358, 168 h) is 80.8 nM; in experiment [1] (setting [2]), 49.8 nM.

For the molecule `Cc1nc(N[C@H](C)c2cccc(C(F)F)c2F)c2cn(C3(CF)CC3)c(=O)c(N3CCN(C4CC4)CC3)c2n1` [Example 142, (R)-8-(4-cyclopropylpiperazin-1-yl)-4-((1-(3-(difluoromethyl)-2-fluorophenyl)ethyl)amino)-6-(1-(fluoromethyl)cyclopropyl)-2-methylpyrido[4,3-d]pyrimidine-7(6H)-one], the concentration for half-maximal inhibition (IC50) is 24.1 nM in the experiment with H358 cells (Homo sapiens, NCI-H358, 168 h) and 43.7 nM in experiment [1] (setting [2]).

As to `COc1c(=O)n(C2(CF)CC2)cc2c(N[C@H](C)c3cccc([N+](=O)[O-])c3C)nc(C)nc12` [Example 29, (R)-6-(1-(fluoromethyl)cyclopropyl)-8-methoxy-2-methyl-4-((1-(2-methyl-3-nitrophenyl)ethyl)amino)pyrido[4,3-d]pyrimidine-7(6H)-one], the IC50 in the experiment on H358 cells (Homo sapiens, NCI-H358, 168 h) came to 78.7 nM; in experiment [1] (setting [2]), 71 nM.

For `Cc1nc(N[C@H](C)c2cccc(C(F)F)c2F)c2cn(C3(CF)CC3)c(=O)c(N3CCC(N4CCCC4)CC3)c2n1` [Example 159], the IC50 with H358 cells (Homo sapiens, NCI-H358, 168 h) came out at 51.5 nM; in experiment [1] (setting [2]), 138 nM.

With `[2H][C@](C)(Nc1nc(C)nc2c(N3CCOCC3)c(=O)n(N3CCOCC3)cc12)c1cccc(C(F)F)c1F` [Example 78, (R)-4-((1-(3-(difluoromethyl)-2-fluorophenyl)ethyl-1-d)amino)-2-methyl-6,8-dimorpholinepyrido[4,3-d]pyrimidine-7(6H)-one], the IC50 in the experiment on H358 cells (Homo sapiens, NCI-H358, 168 h) was found to be 71.1 nM; in experiment [1] (setting [2]), 39.6 nM.

Regarding `Cc1nc(N[C@H](C)c2cccc(C(F)F)c2F)c2cn(C3(CF)CC3)c(=O)c(N=S(C)(C)=O)c2n1` [Example 103, (R)-4-((1-(3-(difluoromethyl)-2-fluorophenyl)ethyl)amino)-8-((dimethyl(oxo)-λ^6-sulfanylidene)amino)-6-(1-(fluoromethyl)cyclopropyl)-2-methylpyrido[4,3-d]pyrimidine-7(6H)-one], the IC50 with H358 cells (Homo sapiens, NCI-H358, 168 h) amounted to 130 nM; in experiment [1] (setting [2]), 82.4 nM.

In the case of `Cc1nc(N[C@H](C)c2cccc([N+](=O)[O-])c2C)c2cn(C3(CF)CC3)c(=O)c(N3CCOCC3)c2n1` [Example 117, (R)-6-(1-(fluoromethyl)cyclopropyl)-2-methyl-4-((1-(2-methyl-3-nitrophenyl)ethyl)amino)-8-morpholinylpyrido[4,3-d]pyrimidine-7(6H)-one], the IC50 was found to be 13.3 nM with H358 cells (Homo sapiens, NCI-H358, 168 h) and 22.4 nM in experiment [1] (setting [2]).

Turning to `Cc1nc(N[C@H](C)c2cccc(C(F)F)c2F)c2cn(C3(CF)CC3)c(=O)c(-n3ncc4ncccc43)c2n1` [Example 104, (R)-4-((1-(3-(difluoromethyl)-2-fluorophenyl)ethyl)amino)-6-(1-(fluoromethyl)cyclopropyl)-2-methyl-8-(1H-pyrazolo[4,3-b]pyridin-1-yl)pyrido[4,3-d]pyrimidine-7(6H)-one], the IC50 in the experiment with H358 cells (Homo sapiens, NCI-H358, 168 h) stood at 145 nM; in experiment [1] (setting [2]) it was 57.5 nM.

Turning to `Cc1nc(N[C@H](C)c2cccc(C#N)c2C)c2cn(N3CCOCC3)c(=O)c(N3CCOC[C@@H]3C)c2n1` [Example 110, 2-methyl-3-((R)-1-((2-methyl-8-((S)-3-methylmorpholine)-6-morpholine-7-oxo-6,7-dihydropyrido[4,3-d]pyrimidin-4-yl)amino)ethyl)benzonitrile], the IC50 in the experiment on H358 cells (Homo sapiens, NCI-H358, 168 h) amounted to 50.4 nM; in experiment [1] (setting [2]) it was 73.6 nM.

Turning to “(R)-4-((1-(3-(difluoromethyl)-2-fluorophenyl)ethyl)amino)-6-(1-(fluoromethyl)cyclopropyl)-8-(2-hydroxyprop-2-yl)-2-methylpyrido[4,3-d]pyrimidine-7(6H)-one [Example 144]”, the IC50 in the experiment with H358 cells turned out to be 105 nM; in experiment [1] (1 h compound incubation), 40 nM.

Turning to `CC(=O)N1CCN(c2c(=O)n(C3(CF)CC3)cc3c(N[C@H](C)c4cccc(C(F)F)c4F)nc(C)nc23)CC1` [Example 49], the IC50 with H358 cells (Homo sapiens, NCI-H358, 168 h) is 10.1 nM; in experiment [1] (setting [2]) it was 62.6 nM.

Regarding `Cc1nc(N[C@H](C)c2cccc(C(F)F)c2F)c2cn(C3(CF)CC3)c(=O)c(-c3cnn4c3COCC4)c2n1` [Example 176], the IC50 in the experiment with H358 cells (Homo sapiens, NCI-H358, 168 h) stood at 132 nM; in experiment [1] (setting [2]), 126 nM.

`Cc1nc(N[C@H](C)c2cccc(C(F)F)c2F)c2cn(C3(CF)CC3)c(=O)c(C3(O)CCOC3)c2n1` (stereo partly drawn) [Example 139, 4-(((R)-1-(3-(difluoromethyl)-2-fluorophenyl)ethyl)amino)-6-(1-(fluoromethyl)cyclopropyl)-8-(3-hydroxytetrahydrofuran-3-yl)-2-methylpyrido[4,3-d]pyrimidine-7(6H)-one]: the IC50 in the experiment on H358 cells (Homo sapiens, NCI-H358, 168 h) came to 86.6 nM; in experiment [1] (setting [2]), 81.2 nM.

For `Cc1nc(N[C@H](C)c2cccc(C(F)F)c2F)c2cn(C3(CF)CC3)c(=O)c(N3CCC(C)(O)CC3)c2n1` [Example 45, (R)-4-((1-(3-(difluoromethyl)-2-fluorophenyl)ethyl)amino)-6-(1-(fluoromethyl)cyclopropyl)-8-(4-hydroxy-4-methylpiperidin-1-yl)-2-methylpyrido[4,3-d]pyrimidine-7(6H)-one], the IC50 in the experiment on H358 cells (Homo sapiens, NCI-H358, 168 h) is 31.4 nM; in experiment [1] (setting [2]), 18.9 nM.

Consider `Cc1nc(N[C@H](C)c2cccc(C(F)F)c2F)c2cn(C3(CF)CC3)c(=O)c(N3CCN(CC4(C)COC4)CC3)c2n1` [Example 109, (R)-4-((1-(3-(difluoromethyl)-2-fluorophenyl)ethyl)amino)-6-(1-(fluoromethyl)cyclopropyl)-2-methyl-8-(4-((3-methyloxetan-3-yl)methyl)piperazin-1-yl)pyrido[4,3-d]pyrimidine-7(6H)-one], for which the IC50 in the experiment with H358 cells (Homo sapiens, NCI-H358, 168 h) was 23.7 nM; in experiment [1] (setting [2]), 35.5 nM.

Source of the values: patent EP4417607A1, “HETEROCYCLIC COMPOUND AS SOS1 INHIBITOR AND USES THEREOF” (Nanjing Zaiming Pharmaceutical Co., Ltd., priority 2021, dated 2023).
